Measured values reported in BindingDB's records for doi:10.1021/jm9509096 (1996).
pIC50: −log10 of the molar value. Counter-ions that a name gives are not always drawn.

Target: cGMP-specific 3',5'-cyclic phosphodiesterase (Cavia porcellus)
Experiment: Inhibition in vitro of Phosphodiesterase 5 isolated from guinea pig lung

pIC50	SMILES
4.52	COc1cc2cc(CO)c(CO)c(-c3cc(OC)c(OC)c(C(=O)N(C)C)c3)c2cc1OC [5-(2,3-Bis-hydroxymethyl-6,7-dimethoxy-naphthalen-1-yl)-2,3-dimethoxy-N,N-dimethyl-benzamide]
4.52	CCOc1cc2cc(CO)c(CO)c(-c3cc(N)c(OC)c(OC)c3)c2cc1OCC [[1-(3-Amino-4,5-dimethoxy-phenyl)-6,7-diethoxy-3-hydroxymethyl-naphthalen-2-yl]-methanol; hydrochloride]
4.28	COc1cc2cc(CO)c(CO)c(-c3cc(OC)c(OC)c(S(C)(=O)=O)c3)c2cc1OC [[3-Hydroxymethyl-1-(3-methanesulfonyl-4,5-dimethoxy-phenyl)-6,7-dimethoxy-naphthalen-2-yl]-methanol]
5.52	COc1cc2cc(CO)c(CO)c(-c3cc(OC)c(OC)c(OC)c3)c2cc1OC [[3-Hydroxymethyl-6,7-dimethoxy-1-(3,4,5-trimethoxy-phenyl)-naphthalen-2-yl]-methanol]
5.10	COc1ccc2c(-c3cc(OC)c(OC)c(OC)c3)c(CO)c(CO)cc2c1 [[3-Hydroxymethyl-6-methoxy-1-(3,4,5-trimethoxy-phenyl)-naphthalen-2-yl]-methanol]

Second part, the compound before the results:

SMILES	pIC50
COc1cc2cc(CO)c(CO)c(-c3cc[nH]c(=O)c3)c2cc1OC [4-(2,3-Bis-hydroxymethyl-6,7-dimethoxy-naphthalen-1-yl)-3H-pyridin-2-one]	5.00
COc1cc2cc(CO)c(CO)cc2cc1OC [(3-Hydroxymethyl-6,7-dimethoxy-naphthalen-2-yl)-methanol]	< 4.00
COc1cc2cc(CO)c(CO)c(Cc3cc(OC)c(OC)c(OC)c3)c2cc1OC [[3-Hydroxymethyl-6,7-dimethoxy-1-(3,4,5-trimethoxy-benzyl)-naphthalen-2-yl]-methanol]	4.70
COc1cc(-c2c(CO)c(CO)cc3cc4c(cc23)OCO4)cc(OC)c1OC [[7-Hydroxymethyl-5-(3,4,5-trimethoxy-phenyl)-naphtho[2,3-d][1,3]dioxol-6-yl]-methanol]	< 4.52
